According to paper PMC6479915, “Novel Benzene-Based Carbamates for AChE/BChE Inhibition: Synthesis and Ligand/Structure-Oriented SAR Study” (International Journal of Molecular Sciences, 2019):

Tests used:
AChE from electric eel = biological target: T1, AChE from electric eel (Electrophorus electricus, UniProt O42275); test: biochemical; conditions: mean ± SD, n = three experiments; 25 °C, PBS pH 7.4, substrate ATCh 40 μM
T1 construct: purchased Sigma, St. Louis, MO, USA

BChE from equine serum = biological target: T2, BChE from equine serum (Equus caballus, UniProt P81908); test: In vitro BChE inhibition, modified Ellman's method; format: biochemical; conditions: for SI (index selectivity) = IC50 (AChE)/IC50 (BChE): higher value = higher selectivity to BChE
T2 construct: BChE (from equine serum); purchased Sigma, St. Louis, MO, USA; host or cells: equine serum
T2 sequence (P81908 whole entry): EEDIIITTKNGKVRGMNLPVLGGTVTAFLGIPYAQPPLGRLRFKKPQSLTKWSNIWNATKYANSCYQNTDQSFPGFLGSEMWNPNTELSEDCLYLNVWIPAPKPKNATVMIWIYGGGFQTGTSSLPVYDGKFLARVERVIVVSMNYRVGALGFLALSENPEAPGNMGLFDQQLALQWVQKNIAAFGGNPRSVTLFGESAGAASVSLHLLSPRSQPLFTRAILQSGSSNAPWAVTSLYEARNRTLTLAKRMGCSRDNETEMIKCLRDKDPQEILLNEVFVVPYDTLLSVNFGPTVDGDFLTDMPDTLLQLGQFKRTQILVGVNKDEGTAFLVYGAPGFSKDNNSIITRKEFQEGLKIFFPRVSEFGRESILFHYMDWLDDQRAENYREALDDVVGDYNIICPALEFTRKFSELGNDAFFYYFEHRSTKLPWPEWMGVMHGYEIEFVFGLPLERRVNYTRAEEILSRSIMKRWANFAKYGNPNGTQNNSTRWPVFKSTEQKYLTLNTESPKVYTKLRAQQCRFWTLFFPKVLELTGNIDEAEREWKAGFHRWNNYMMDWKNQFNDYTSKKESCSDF

T1 sequence (O42275 24-633): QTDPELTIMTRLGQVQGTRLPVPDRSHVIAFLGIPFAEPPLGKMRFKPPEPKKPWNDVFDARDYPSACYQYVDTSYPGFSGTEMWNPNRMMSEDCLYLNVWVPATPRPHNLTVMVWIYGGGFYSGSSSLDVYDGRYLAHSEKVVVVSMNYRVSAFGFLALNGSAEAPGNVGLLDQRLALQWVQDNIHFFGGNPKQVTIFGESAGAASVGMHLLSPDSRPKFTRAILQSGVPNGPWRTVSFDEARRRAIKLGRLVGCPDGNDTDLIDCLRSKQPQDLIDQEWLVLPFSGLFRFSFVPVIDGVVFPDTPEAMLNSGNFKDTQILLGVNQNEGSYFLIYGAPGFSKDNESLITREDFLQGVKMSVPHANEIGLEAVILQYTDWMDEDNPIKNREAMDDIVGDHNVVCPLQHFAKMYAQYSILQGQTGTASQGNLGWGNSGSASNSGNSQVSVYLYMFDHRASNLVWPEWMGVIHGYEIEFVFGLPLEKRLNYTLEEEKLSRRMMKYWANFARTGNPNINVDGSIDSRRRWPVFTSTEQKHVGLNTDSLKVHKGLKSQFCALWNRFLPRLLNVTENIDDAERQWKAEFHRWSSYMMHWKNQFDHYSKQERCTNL

## CC(C(=O)c1ccc(Cl)c2ccccc12)N(C)C(=O)OCc1ccccc1 (stereo not drawn) [Compound 40, Benzyl (1-(4-chloronaphthalen-1-yl)-1-oxopropan-2-yl)(methyl)carbamate]
AChE from electric eel
  IC50: 103.3 ± 0.41 µM
BChE from equine serum
  IC50: 42.75 ± 0.31 µM
  SI (index selectivity) = IC50 (AChE)/IC50 (BChE): 2.42

## CC(C(=O)c1ccc(Br)c2ccccc12)N(C)C(=O)OCc1ccccc1 (stereo not drawn) [Compound 41, Benzyl (1-(4-bromonaphthalen-1-yl)-1-oxopropan-2-yl)(methyl)carbamate]
AChE from electric eel
  IC50: 128.3 ± 0.88 µM
BChE from equine serum
  IC50: 236 ± 16.3 µM
  SI (index selectivity) = IC50 (AChE)/IC50 (BChE): 0.54
